# Marks after values point to notes of the source that are not given here.
# Columns and labels:
# Format in all cases: in vivo, rat
# [1] = tested on: Corticotropin Releasing Hormone (CRH); experiment: Serum corticotropin releasing hormone content in CUMS rats; conditions: after CUMS, before intervention
# Experimental: (§1) A series of experiments were conducted using the chronic unpredictable mild stress (CUMS) rodent model. Rats were exposed daily to any two of the following mild physiological stresses selected at random: • 12 hours of water deprivation • 12 hours of food deprivation • 8 hours of damp sawdust • 24 hours of reversed light/dark cycle • 2 minutes of tail pinching • 1 hour of 60 Hz noise • 15 minutes of cage shaking • Swimming in 4° C. water for 5-10 minutes • 2 hours of restraining.
# (§2) Six groups of rats were assessed: • 1. Control rats: rats raised normally without stress treatments and without nutritional or drug interventions. • 2. CUMS rats: rats subjected to the CUMS protocol but without nutritional or drug interventions. • 3. CUMS HN001: rats subjected to the CUMS protocol and given HN001. • 4. CUMS HN019: rats subjected to the CUMS protocol and given HN019. • 5. CUMS HN001+HN019: rats subjected to the CUMS protocol given both HN001 and HN019. • 6.
# (§3) Baseline assessments were then conducted, including blood collection. For the next 40 days, rats in groups 2-6 were exposed to CUMS treatments to induce depression symptoms associated with stress and anxiety.
# [2] = tested on: IL-6; experiment: IL-6 content in serum, brain and colon of CUMS rats
# Experimental: as §1, §2, §3
# (§4) A series of blood markers were assessed.
# [3] = tested on: CUMS rats; experiment: Elevated-plus maze test in CUMS rats
# Experimental: as §1, §2, §3
# (§5) Tests were then carried out to assess rat behaviours, such as the open field test and the elevated maze test (see FIG. 2). These are standard ways to measure rat stress and anxiety traits.
# [4] = tested on: TNF-α; experiment: TNF-α content in serum, brain and colon of CUMS rats
# Experimental: as §1, §2, §3, §4
# [5] = tested on: Adrenocorticotropic Hormone (ACTH); experiment: Serum adrenocorticotropic hormone content in CUMS rats
# Experimental: as §1, §2, §3
# [6] = tested on: brain and colon tissue; experiment: HE staining of brain and colon tissues of CUMS rats; conditions: FIG. 5
# Excerpt: Brain tissues included two regions from the hippocampus (Dentate Gyrus (DG) and CA1) and a region from the cortex (P2).
# Brain and colon tissue were stained using the HE method. Brain tissue included two regions from the hippocampus (Dentate Gyrus (DG) and CA1) and a region from the cortex (P2). The results are shown in FIG. 5 and reveal that for the control group, neurons in hippocampal regions (dentate gyrus (DG) and Ca1) and the cortex (P2) were normal, orderly, tightly packed cells. The cells had expected morphology, homogeneous cytoplasmic staining, and no increased interstitial or abnormal changes.
# For the colon tissue, control intestinal villi were arranged neatly, with normal cell morphology and no obvious damage was seen.
# [7] = tested on: CUMS rats; experiment: Open field test in CUMS (chronic unpredictable mild stress) rats
# Experimental: as §1, §2, §3, §5
# [8] = tested on: TNF-alpha, IL-6, IL-1β and IL-18; experiment: Cytokines TNF-alpha, IL-6, IL-1β and IL-18 in serum, brain tissue and colon of CUMS rats; conditions: versus CUMS
# Experimental: as §1, §2, §3, §4
# [9] = serum, after CUMS with intervention
# [10] = serum, after CUMS, before intervention
# [11] = after CUMS, before intervention
# [12] = base line, before CUMS and before intervention
smiles,measurement,setting,value
"CNCCC(Oc1ccc(C(F)(F)F)cc1)c1ccccc1 (stereo not shown) [Flu, fluoxetine, reference compound]","Serum Corticotropin Releasing Hormone (CRH) Content, After CUMS",[1],5.50 ± 2.02^a pg/ml
same,"IL-6 Content, Brain","[2]; brain, end of experiment",19.35 ± 4.29^b pg/ml
same,"IL-6 Content, Colon","[2]; colon, end of experiment",30.89 ± 7.22^b pg/ml
same,"IL-6 Content, serum-after intervention",[2]; [9],9.83 ± 3.83^b pg/ml
same,"IL-6 Content, serum-after CUMS",[2]; [10],13.35 ± 6.46^a pg/ml
same,"Time in Closed Arms in Elevated Plus Maze, After intervention (x ± S)",[3]; after CUMS with intervention,224.96 ± 18.71^b Seconds
same,"Total Distance Travelled in Elevated Maze Test, After intervention (x ± S)",[3]; after CUMS with intervention,6.19 ± 1.75^b Metres
same,"Time in Closed Arms in Elevated Plus Maze, After CUMS (x ± S)",[3]; [11],292.57 ± 8.90^a Seconds
same,"Total Distance Travelled in Elevated Maze Test, After CUMS (x ± S)",[3]; [11],2.37 ± 1.12^a Metres
same,"Time in Closed Arms in Elevated Plus Maze, Base line (x ± S)",[3]; [12],240.31 ± 16.95 s
same,"Total Distance Travelled in Elevated Maze Test, Base line (x ± S)",[3]; [12],7.44 ± 1.38 Metres
same,"TNF-α Content, Brain","[4]; brain, end of experiment",48.62 ± 7.26^b pg/ml
same,"TNF-α Content, Colon","[4]; colon, end of experiment",69.09 ± 12.48^b pg/ml
same,"TNF-α Content, serum-after intervention",[4]; [9],9.83 ± 3.83^b pg/ml
same,"TNF-α Content, serum-after CUMS",[4]; [10],23.35 ± 6.46^a pg/ml
same,"Serum Adrenocorticotropic Hormone (ACTH) Content, After intervention",[5]; after CUMS with intervention,2.90 ± 2.20^b pg/ml
same,"Serum Adrenocorticotropic Hormone (ACTH) Content, After CUMS",[5]; [11],5.58 ± 1.41^a pg/ml
same,"Morphology of hippocampus (DG, CA1) and cortex (P2)",[6]; brain,CUMS-associated damage was largely reduced
same,"Morphology of colon tissue (intestinal villi, mucosa)",[6]; colon,largely reduced
same,"Total Distance Travelled in Open Field Test, After CUMS only (x ± S)","[7]; after 40 days CUMS, before intervention",2.89 ± 2.15^a Metres
same,"Vertical Movement (Number of Times Standing Up) in Open Field Test, After intervention (x ± S)",[7]; after CUMS with intervention,11.20 ± 3.49^b
same,"Vertical Movement (Number of Times Standing Up) in Open Field Test, After CUMS (x ± S)",[7]; [11],2.00 ± 1.79^a
same,"Total Distance Travelled in Open Field Test, Base line (x ± S)",[7]; [12],23.34 ± 2.98 Metres
same,"Vertical Movement (Number of Times Standing Up) in Open Field Test, Base line (x ± S)",[7]; [12],17.20 ± 8.04
same,"Levels of cytokines TNF-alpha, IL-6, IL-1β and IL-18",[8],reduced levels of cytokines
